Assay results published in article PMC4641156, “Evaluation of a Novel Tc-99m Labelled Vitamin B12 Derivative for Targeting Escherichia coli and Staphylococcus aureus In Vitro and in an Experimental Foreign-Body Infection Model” (Molecular Imaging and Biology, 2015).

Key:
[1] = test system: S. aureus (ATCC 35556, methicillin susceptible); assay: In vitro binding of radiotracers to S. aureus (kinetics and competition with unlabeled Cbl); format: cell-based, Staphylococcus aureus
Procedure: Laboratory strains E. coli (ATCC 25922) and S. aureus (ATCC 35556, methicillin susceptible) were used. Bacteria were stored at −70 °C using a cryovial bead preservation system (Microbank, Pro-Lab Diagnostics, Richmond Hill, ON, Canada). Single cryovial beads were cultured overnight on Columbia sheep blood agar plates (Becton Dickinson, Heidelberg, Germany). For in vitro binding studies, overnight cultures were prepared in snap-lid tubes from 2 to 3 CFU in 5 ml of a synthetic minimal medium depleted of vitamin B12. After 18–20 h of incubation at 37 °C and 200 rpm, the cultures were diluted 1:100 in the same medium and further incubated at 37 °C to mid-logarithmic phase in sealed tubes. […] Five hundred microlitres of resuspended cultures were transferred to Eppendorf tubes and used for the measurement of binding to viable bacteria at 37 °C. For testing binding at 4 °C, bacterial suspension in PBS were let to equilibrate for 1 h at 4 °C before adding the radiopharmaceuticals. […] The bacterial suspensions were then centrifuged, resuspended in PBS and used for further studies. […] Colony counts remained <10 CFU/ml. Five hundred microlitres of each radiopharmaceutical solution was added to the 500 μl of bacterial suspensions. Binding assays were performed in quadruplicate vials per testing conditions. Afterwards, vials were centrifuged for 5 min at 13,500 rpm and 4 °C, and pellets were washed with 500 μl of cooled PBS. Supernatants and resuspended pellets were counted in a multi-well NaI γ-counter (Cobra; Packard, USA) and the counts per minute (CPM) recorded. The percentage of radiolabeled Cbl in the pellets was calculated as the percentage of the CPMp/CPM0 ratio per log10 8.0 CFU/ml, where CPMp were the CPM associated to pellets and CPM0 were the total CPM of the radiolabeled Cbl added per vial.

E. coli (ATCC 25922) = assay: In vitro binding of radiotracers to E. coli (kinetics and competition with unlabeled Cbl); format: cell-based, Escherichia coli
Procedure: Laboratory strains E. coli (ATCC 25922) and S. aureus (ATCC 35556, methicillin susceptible) were used. Bacteria were stored at −70 °C using a cryovial bead preservation system (Microbank, Pro-Lab Diagnostics, Richmond Hill, ON, Canada). Single cryovial beads were cultured overnight on Columbia sheep blood agar plates (Becton Dickinson, Heidelberg, Germany). For in vitro binding studies, overnight cultures were prepared in snap-lid tubes from 2 to 3 CFU in 5 ml of a synthetic minimal medium depleted of vitamin B12. After 18–20 h of incubation at 37 °C and 200 rpm, the cultures were diluted 1:100 in the same medium and further incubated at 37 °C to mid-logarithmic phase in sealed tubes. […] Five hundred microlitres of resuspended cultures were transferred to Eppendorf tubes and used for the measurement of binding to viable bacteria at 37 °C. For testing binding at 4 °C, bacterial suspension in PBS were let to equilibrate for 1 h at 4 °C before adding the radiopharmaceuticals. […] Supernatants and resuspended pellets were counted in a multi-well NaI γ-counter (Cobra; Packard, USA) and the counts per minute (CPM) recorded. The percentage of radiolabeled Cbl in the pellets was calculated as the percentage of the CPMp/CPM0 ratio per log10 8.0 CFU/ml, where CPMp were the CPM associated to pellets and CPM0 were the total CPM of the radiolabeled Cbl added per vial.

E. coli-infected cages = assay: Distribution into E. coli-infected tissue cages and cage fluids; settings: for Cage—E. coli, mean % ID/g tissue ± SD: explanted E. coli-infected cage
Procedure: (§1) For in vivo studies, overnight cultures were prepared in 5 ml tryptic soy broth (TSB), incubated at 37 °C for 18–20 h. Bacterial suspensions were then washed three times, resuspended in 5 ml of sterile 0.9 % saline and diluted.
(§2) C57Bl/6 mice from in-house breeding or purchased from Charles River Laboratories GmbH (Sulzfeld, Germany) were housed in the Animal Facility of the Department of Biomedicine, University Hospital, Basel, Switzerland. Experiments were performed in accordance to the regulations of Swiss veterinary law. The Institutional Animal Care and Use Committee approved the study protocol. Drinking water and standard laboratory food pellets (CR) were provided ad libitum. To reduce interference of high vitamin B12 level in mice, animals randomized for Cbl biodistribution studies were fed with a vitamin B12-reduced diet (Provimi Kliba AG, Kaiseraugst, Switzerland) beginning at the age of 10 weeks. At the age of 12 weeks, one sterile polytetrafluoroethylene (Teflon) tube (32 × 10 mm), perforated by 130 regularly spaced holes of 1 mm diameter, was aseptically implanted into the back of each mouse, as previously described. Each cage was weighted and numbered before implantation. Two weeks after surgery, clips were removed from healed wounds, and sterility of the cage was confirmed by culture of aspirated cage fluid. On the following day, 5 × 10^5 CFU of E. coli or 5 × 10^6 CFU of S. aureus, resuspended in 200 μl of 0.9 % saline, were injected into cages. Sterile 0.9 % saline was injected in cages in animals used as negative controls.
(§3) Accumulation of radiopharmaceuticals in cage fluids was measured by resuspending 100 μl of aspirated fluid in 1 ml PBS and counted in a gamma counter. The percentage of injected dose (% IDTCF/ml) was calculated as measured CPM normalized per 1 ml cage fluid and divided by the CPM0 (injected dose). For determination of radiopharmaceutical biodistribution, mice were sacrificed with an intraperitoneal injection of 50–80 μl saline solution of pentothal (100 mg/ml). Blood was collected by cardiac puncture, and mice were perfused with 0.9 % saline for around 5 min. Following, tissues were dissected, weighted and collected into test tubes for γ-counter (blood, heart, liver, spleen, stomach, kidneys, lungs, intestine, muscle, bone and cage). The percentage of injected dose (% IDtissue/g) was calculated as CPM associated to each organ divided by its weight in grams and by the CPM0.

[2] = Biodistribution after i.v. injection in tissue cage mouse model (organs, tissues, cages overall)
Procedure: as §2
The two different experimental set-up of biodistribution were adapted to the known radiopharmaceutical binding/non-binding to plasma protein, persistence in organs and tissues and half-life of the labelling radioisotope.
as §3

[3] = Distribution into sterile (non-infected) tissue cages and cage fluids; settings: for Cage—sterile, mean % ID/g tissue ± SD: explanted sterile cage
Procedure: as §2, §3

S. aureus-infected cages = assay: Distribution into S. aureus-infected tissue cages and cage fluids; settings: for Cage—S. aureus, mean % ID/g tissue ± SD: explanted S. aureus-infected cage
Procedure: as §1, §2, §3

[4] = test system: transcobalamin II (TC II); parameters: method as in PMID 12831983, PMID 18413759; settings: cited from earlier work
[5] = cage fluid, vs sterile controls

Compound: cyanocobalamin [unlabeled Cbl]
- Excess of unlabeled Cbl that decreased [99mTc]PAMA(4)-Cbl binding to S. aureus ([1]; S. aureus, 3 h): 1 fold
- Excess of unlabeled Cbl that reduced [57Co]Cbl binding to S. aureus ([1]; both 37 and 4 °C, 3 h): 10 fold
- Cold Cbl excess sufficient to reduce maximal [57Co]Cbl binding to E. coli to 50 % (E. coli (ATCC 25922); 4 °C and ethanol-killed bacteria): 10 fold
- Concentration of unlabeled Cbl required to show inhibition of [57Co]Cbl binding to E. coli (E. coli (ATCC 25922); 37 °C, viable bacteria, 1 h simultaneous incubation): 1000 fold

Compound: O=C([O-])CN(CCN(CC(=O)[O-])CC(=O)[O-])CCN(CC(=O)[O-])CC(=O)[O-].[99Tc+4] [[^99mTc]DTPA]
- Cage—E. coli, mean % ID/g tissue ± SD (E. coli-infected cages; 4 h after i.v. injection): 0.91 ± 0.15 % ID/g tissue
- Cage—E. coli, mean % ID/g tissue ± SD (E. coli-infected cages; 24 h after i.v. injection): 0.15 ± 0.10 % ID/g tissue
- Blood, mean % ID/g tissue ± SD ([2]; 30 min after i.v. injection): 1.46 ± 1.10 % ID/g tissue
- Blood, mean % ID/g tissue ± SD ([2]; 4 h after i.v. injection): 0.02 ± 0.10 % ID/g tissue
- Blood, mean % ID/g tissue ± SD ([2]; 24 h after i.v. injection): 0.01 ± 0.00 % ID/g tissue
- Bone, mean % ID/g tissue ± SD ([2]; 30 min after i.v. injection): 0.47 ± 0.30 % ID/g tissue
- Bone, mean % ID/g tissue ± SD ([2]; 4 h after i.v. injection): 0.05 ± 1.50 % ID/g tissue
- Bone, mean % ID/g tissue ± SD ([2]; 24 h after i.v. injection): 0.01 ± 0.00 % ID/g tissue
- Heart, mean % ID/g tissue ± SD ([2]; 4 h after i.v. injection): 0.05 ± 0.00 % ID/g tissue
- Heart, mean % ID/g tissue ± SD ([2]; 24 h after i.v. injection): 0.01 ± 0.00 % ID/g tissue
- Intestine, mean % ID/g tissue ± SD ([2]; 30 min after i.v. injection): 0.90 ± 0.50 % ID/g tissue
- Intestine, mean % ID/g tissue ± SD ([2]; 4 h after i.v. injection): 0.66 ± 0.20 % ID/g tissue
- Intestine, mean % ID/g tissue ± SD ([2]; 24 h after i.v. injection): 0.02 ± 0.00 % ID/g tissue
- Kidneys, mean % ID/g tissue ± SD ([2]; 30 min after i.v. injection): 3.92 ± 0.80 % ID/g tissue
- Kidneys, mean % ID/g tissue ± SD ([2]; 4 h after i.v. injection): 0.93 ± 0.80 % ID/g tissue
- Kidneys, mean % ID/g tissue ± SD ([2]; 24 h after i.v. injection): 0.15 ± 0.00 % ID/g tissue
- Liver, mean % ID/g tissue ± SD ([2]; 30 min after i.v. injection): 0.33 ± 0.20 % ID/g tissue
- Liver, mean % ID/g tissue ± SD ([2]; 4 h after i.v. injection): 0.09 ± 0.00 % ID/g tissue
- Liver, mean % ID/g tissue ± SD ([2]; 24 h after i.v. injection): 0.02 ± 0.00 % ID/g tissue
- Lungs, mean % ID/g tissue ± SD ([2]; 30 min after i.v. injection): 0.40 ± 0.20 % ID/g tissue
- Lungs, mean % ID/g tissue ± SD ([2]; 4 h after i.v. injection): 0.06 ± 0.10 % ID/g tissue
- Lungs, mean % ID/g tissue ± SD ([2]; 24 h after i.v. injection): 0.01 ± 0.00 % ID/g tissue
- Muscle, mean % ID/g tissue ± SD ([2]; 30 min after i.v. injection): 0.34 ± 0.30 % ID/g tissue
- Muscle, mean % ID/g tissue ± SD ([2]; 4 h after i.v. injection): 0.06 ± 1.10 % ID/g tissue
- Muscle, mean % ID/g tissue ± SD ([2]; 24 h after i.v. injection): 0.00 ± 0.00 % ID/g tissue
- Spleen, mean % ID/g tissue ± SD ([2]; 30 min after i.v. injection): 0.19 ± 0.00 % ID/g tissue
- Spleen, mean % ID/g tissue ± SD ([2]; 4 h after i.v. injection): 0.06 ± 0.00 % ID/g tissue
- Spleen, mean % ID/g tissue ± SD ([2]; 24 h after i.v. injection): 0.02 ± 0.00 % ID/g tissue
- Stomach, mean % ID/g tissue ± SD ([2]; 30 min after i.v. injection): 1.67 ± 1.70 % ID/g tissue
- Stomach, mean % ID/g tissue ± SD ([2]; 4 h after i.v. injection): 0.05 ± 1.10 % ID/g tissue
- Stomach, mean % ID/g tissue ± SD ([2]; 24 h after i.v. injection): 0.02 ± 0.00 % ID/g tissue
- Cage—sterile, mean % ID/g tissue ± SD ([3]; 30 min after i.v. injection): 2.88 ± 0.50 % ID/g tissue
- Cage—sterile, mean % ID/g tissue ± SD ([3]; 4 h after i.v. injection): 0.34 ± 0.40 % ID/g tissue
- Cage—sterile, mean % ID/g tissue ± SD ([3]; 24 h after i.v. injection): 0.01 ± 0.00 % ID/g tissue
- Cage—S. aureus, mean % ID/g tissue ± SD (S. aureus-infected cages; 4 h after i.v. injection): 0.40 ± 0.10 % ID/g tissue
- Cage—S. aureus, mean % ID/g tissue ± SD (S. aureus-infected cages; 24 h after i.v. injection): 0.05 ± 0.10 % ID/g tissue

Compound: [^99mTc]PAMA(4)-cyanocobalamin [[^99mTc]PAMA(4)-Cbl]
- Time p.i. at which cage fluid retention was significantly higher in E. coli-infected than control mice (E. coli-infected cages; [5]): 8 h
- Binding to killed S. aureus ([1]; ethanol-killed and/or heat-killed bacteria): no binding
- In vitro binding to S. aureus, fold lower than [57Co]Cbl ([1]; relative to [57Co]Cbl): 3 fold
- Binding to the major Cbl transport protein TC II [4]: abolished binding
- Cage fluid/blood ratio, non-infected mice ([3]; 24 h p.i.): 1.53 ± 0.30
- Time p.i. at which cage fluid % IDTCF/ml was significantly higher in S. aureus-infected than control mice (S. aureus-infected cages; [5]): 4 h

Compound: O=C([O-])CC(O)(CC(=O)[O-])C(=O)[O-].[67Ga+3] [[^67Ga]citrate, Gallium-67 citrate]
- Cage fluid/blood ratio, mice infected with E. coli (E. coli-infected cages; 72 h p.i.): 5.41 ± 0.52
- Cage—E. coli, mean % ID/g tissue ± SD (E. coli-infected cages; 72 h after i.v. injection): 3.99 ± 1.10 % ID/g tissue
- Blood, mean % ID/g tissue ± SD ([2]; 72 h after i.v. injection): 0.46 ± 0.20 % ID/g tissue
- Bone, mean % ID/g tissue ± SD ([2]; 72 h after i.v. injection): 10.99 ± 2.40 % ID/g tissue
- Time to peak values in cages ([2]; cage fluids): ≤ 12 h
- Heart, mean % ID/g tissue ± SD ([2]; 72 h after i.v. injection): 1.26 ± 0.10 % ID/g tissue
- Intestine, mean % ID/g tissue ± SD ([2]; 72 h after i.v. injection): 2.00 ± 0.40 % ID/g tissue
- Kidneys, mean % ID/g tissue ± SD ([2]; 72 h after i.v. injection): 10.73 ± 1.30 % ID/g tissue
- Liver, mean % ID/g tissue ± SD ([2]; 72 h after i.v. injection): 7.44 ± 0.90 % ID/g tissue
- Lungs, mean % ID/g tissue ± SD ([2]; 72 h after i.v. injection): 2.11 ± 0.30 % ID/g tissue
- Muscle, mean % ID/g tissue ± SD ([2]; 72 h after i.v. injection): 0.69 ± 0.20 % ID/g tissue
- Spleen, mean % ID/g tissue ± SD ([2]; 72 h after i.v. injection): 6.09 ± 0.70 % ID/g tissue
- Stomach, mean % ID/g tissue ± SD ([2]; 72 h after i.v. injection): 3.73 ± 1.50 % ID/g tissue
- Cage fluid/blood ratio, control (non-infected) mice ([3]; 72 h p.i.): 1.14 ± 0.21
- Cage—sterile, mean % ID/g tissue ± SD ([3]; 72 h after i.v. injection): 1.45 ± 0.50 % ID/g tissue
- Cage fluid/blood ratio, mice infected with S. aureus (S. aureus-infected cages; 72 h p.i.): 3.56 ± 0.87
- Cage—S. aureus, mean % ID/g tissue ± SD (S. aureus-infected cages; 72 h after i.v. injection): 9.45 ± 2.30 % ID/g tissue
